Measured values reported in ChEMBL document CHEMBL3797087, “Synthesis of novel triazole/isoxazole functionalized 7-(trifluoromethyl)pyrido[2,3-d]pyrimidine derivatives as promising anticancer and antibacterial agents” (2016).
In brackets after ≈: the same amount, converted by molar mass.

Tests used:
Type in all cases: functional
MDA-MB-231 = assay: Anticancer activity against human MDA-MB-231 cells after 48 hrs by SRB assay; conditions: MDA-MB-231, 48 h
[1] = Anticancer activity against human PANC1 cells after 48 hrs by SRB assay; conditions: PANC-1, 48 h
A549 = assay: Anticancer activity against human A549 cells after 48 hrs by SRB assay; conditions: A549, 48 h
HeLa = assay: Anticancer activity against human HeLa cells after 48 hrs by SRB assay
Bacillus licheniformis [2] = assay: Antibacterial activity against Bacillus licheniformis after 24 hrs by agar diffusion assay
Streptococcus pneumoniae [3] = assay: Antibacterial activity against Streptococcus pneumoniae after 24 hrs by agar diffusion assay
Staphylococcus aureus [4] = assay: Antibacterial activity against Staphylococcus aureus after 24 hrs by agar diffusion assay
Pseudomonas aeruginosa [5] = assay: Antibacterial activity against Pseudomonas aeruginosa after 24 hrs by agar diffusion assay
Escherichia coli [6] = assay: Antibacterial activity against Escherichia coli after 24 hrs by agar diffusion assay
Klebsiella pneumoniae [7] = assay: Antibacterial activity against Klebsiella pneumoniae after 24 hrs by agar diffusion assay
Escherichia coli [8] = assay: Antibacterial activity against Escherichia coli after 24 to 48 hrs
Klebsiella pneumoniae [9] = assay: Antibacterial activity against Klebsiella pneumoniae after 24 to 48 hrs
Pseudomonas aeruginosa [10] = assay: Antibacterial activity against Pseudomonas aeruginosa after 24 to 48 hrs
Bacillus licheniformis [11] = assay: Antibacterial activity against Bacillus licheniformis after 24 to 48 hrs
Streptococcus pneumoniae [12] = assay: Antibacterial activity against Streptococcus pneumoniae after 24 to 48 hrs
Staphylococcus aureus [13] = assay: Antibacterial activity against Staphylococcus aureus after 24 to 48 hrs

| SMILES | GI50 (MDA-MB-231) [nM] | GI50 [1] [nM] | GI50 (A549) [nM] | GI50 (HeLa) [nM] | inhibition zone (IZ) (Bacillus licheniformis [2]) [mm] | inhibition zone (IZ) (Streptococcus pneumoniae [3]) [mm] | inhibition zone (IZ) (Staphylococcus aureus [4]) [mm] | inhibition zone (IZ) (Pseudomonas aeruginosa [5]) [mm] | inhibition zone (IZ) (Escherichia coli [6]) [mm] | inhibition zone (IZ) (Klebsiella pneumoniae [7]) [mm] | MIC (Escherichia coli [8]) [µg/mL] | MIC (Klebsiella pneumoniae [9]) [µg/mL] | MIC (Pseudomonas aeruginosa [10]) [µg/mL] | MIC (Bacillus licheniformis [11]) [µg/mL] | MIC (Streptococcus pneumoniae [12]) [µg/mL] | MIC (Staphylococcus aureus [13]) [µg/mL] |
| --- | --- | --- | --- | --- | --- | --- | --- | --- | --- | --- | --- | --- | --- | --- | --- | --- |
| CCc1nc2nc(C(F)(F)F)ccc2c(=O)n1Cc1cn(CCC(F)(F)C(F)(F)C(F)(F)C(F)(F)C(F)(F)C(F)(F)F)nn1 | 2830 | 730 | 30 | 930 |  |  |  |  |  |  |  |  |  |  |  |  |
| O=c1c2ccc(C(F)(F)F)nc2nc(-c2ccccc2)n1Cc1cn(-c2ccc([N+](=O)[O-])cc2)nn1 | 1240 | 2550 | 770 | 860 |  |  |  |  |  |  |  |  |  |  |  |  |
| CCCCCCCCCCn1cc(COc2nc(-c3ccccc3)nc3nc(C(F)(F)F)ccc23)nn1 | 1050 | 490 | 2310 | 1040 | 8 | 16 | 10 |  |  |  |  |  |  |  |  |  |
| CCc1nc2nc(C(F)(F)F)ccc2c(=O)n1Cc1cn(CC(=O)Nc2ccccc2)nn1 | 1700 | 320 | 5260 | 860 |  |  |  |  |  |  |  |  |  |  |  |  |
| CCCCCCCCCCn1cc(Cn2c(-c3ccco3)nc3nc(C(F)(F)F)ccc3c2=O)nn1 | 1100 | 3180 | 200 | 870 |  |  |  |  |  |  |  |  |  |  |  |  |
| FC(F)(F)c1ccc2c(OCc3cn(CCC(F)(F)C(F)(F)C(F)(F)C(F)(F)C(F)(F)C(F)(F)F)nn3)nc(-c3ccccc3)nc2n1 | 520 | 2990 | 1910 | 1200 |  |  |  |  |  |  |  |  |  |  |  |  |
| O=c1c2ccc(C(F)(F)F)nc2ncn1Cc1cn(-c2ccc([N+](=O)[O-])cc2)nn1 | 140 | 1890 | 300 | 890 |  |  |  |  |  |  |  |  |  |  |  |  |
| O=C(Cn1cc(COc2nc(-c3ccccc3)nc3nc(C(F)(F)F)ccc23)nn1)Nc1ccccc1 | 650 | 4500 | 140 | 890 |  |  |  |  |  |  |  |  |  |  |  |  |
| O=c1c2ccc(C(F)(F)F)nc2ncn1Cc1cc(-c2ccc(Br)cc2)no1 | 710 | 1160 | 3810 | 1240 |  |  |  |  |  |  |  |  |  |  |  |  |
| CCCCCCCCn1cc(Cn2c(CC)nc3nc(C(F)(F)F)ccc3c2=O)nn1 | 1340 | 3280 | 2870 | 1270 | 8 | 6 | 9 | 7 | 7 | 7 |  |  |  |  |  |  |
| O=c1c2ccc(C(F)(F)F)nc2ncn1Cc1cc(-c2ccc(Cl)cc2)no1 | 870 | 7080 | 1090 | 840 |  |  |  |  |  |  |  |  |  |  |  |  |
| O=c1c2ccc(C(F)(F)F)nc2nc(-c2ccccc2)n1Cc1cn(CCC(F)(F)C(F)(F)C(F)(F)C(F)(F)C(F)(F)C(F)(F)F)nn1 | 9890 | 2950 | 520 | 870 |  |  |  |  |  |  |  |  |  |  |  |  |
| O=c1c2ccc(C(F)(F)F)nc2nc(-c2ccccc2)n1Cc1cc(-c2cccc3ccccc23)no1 | 1010 | 140 | 3140 | 910 |  |  |  |  |  |  |  |  |  |  |  |  |
| COc1cc(-n2cc(COc3nc(-c4ccccc4)nc4nc(C(F)(F)F)ccc34)nn2)cc(OC)c1OC | 240 | 820 | 4050 | 890 |  |  |  |  |  |  |  |  |  |  |  |  |
| CCCCCCCCCCn1cc(Cn2c(CC)nc3nc(C(F)(F)F)ccc3c2=O)nn1 | 2210 | 20 | 860 | 810 | 21 | 28 | 15 | 16 | 25 | 19 | 25 (≈ 53.8 µM) | 25 (≈ 53.8 µM) | 12.5 (≈ 26.9 µM) | 12.5 (≈ 26.9 µM) | 12.5 (≈ 26.9 µM) | 12.5 (≈ 26.9 µM) |
| CCCCCCCCn1cc(COc2nc(-c3ccccc3)nc3nc(C(F)(F)F)ccc23)nn1 | 570 | 2660 | 5330 | 950 | 21 | 26 | 22 |  | 8 |  |  |  |  | 25 (≈ 51.6 µM) | 12.5 (≈ 25.8 µM) | 12.5 (≈ 25.8 µM) |
| O=C(O)c1cn(C2CC2)c2cc(N3CCNCC3)c(F)cc2c1=O [CIPROFLOXACIN] |  |  |  |  | 24 | 23 | 25 | 25 |  | 22 | 12.5 (≈ 37.7 µM) | 12.5 (≈ 37.7 µM) |  | 12.5 (≈ 37.7 µM) | 12.5 (≈ 37.7 µM) | 12.5 (≈ 37.7 µM) |
| COC(=O)Nc1nc2cc(C(=O)c3cccs3)ccc2[nH]1 [NOCODAZOLE] | 42 | 29 | 80 | 63 |  |  |  |  |  |  |  |  |  |  |  |  |
| CO[C@H]1/C=C/O[C@@]2(C)Oc3c(C)c(O)c4c(O)c(c(/C=N/N5CCN(C)CC5)c(O)c4c3C2=O)NC(=O)/C(C)=C\C=C\[C@H](C)[C@H](O)[C@@H](C)[C@@H](O)[C@@H](C)[C@H](OC(C)=O)[C@@H]1C [RIFAMPIN] |  |  |  |  | 24 | 25 | 25 | 29 | 27 | 27 |  |  |  |  |  |  |
